Experimental data published in the METLIN SMRT retention time set (Domingo-Almenara et al. 2019).

Assay: gradient 5% acetonitrile 3 min, to 50% in 2 min, to 85% in 15 min, held 3 min, 100 µL/min
Conditions: column: Zorbax Extend-C18 2.1 x 50 mm; eluents: water / acetonitrile, 0.1% formic acid
How it was run: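 A Zorbax Extend-C18 column (2.1 × 50 mm, 1.8 μm) run at 100 μL/min with water and acetonitrile, both containing 0.1% formic acid, separated mixtures of ~100 pure standards. The HPLC was coupled to a quadrupole time-of-flight mass spectrometer operated in positive and negative ionization mode, with dead and dwell volumes of 40 μL and 900 μL. Each retention time was taken from a computationally picked adduct peak that was then manually inspected.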

Compound	RP-LC retention time [s]
Cc1ccc(Sc2nccnc2N2CCC(C(=O)N3CCN(c4ccc(C)cc4)CC3)CC2)cc1	1290
O=C(Cc1ccc(Br)cc1)N1CCN(C(=O)c2cc(-c3ccncc3)n[nH]2)CC1	622
Cn1cccc1C(=O)N1CC(c2nc(CCOCC3CCCC3)no2)C1	934
Cc1cc(S(=O)(=O)N2CCCC(Cn3cnc4cccnc43)C2)ccc1F (centres undefined)	787
Cc1ccccc1CNC(=O)C1(C)CCCN(C(=O)Nc2ccccc2)C1 (centres undefined)	898
COC(=O)c1ccc2c(=O)n(Cc3cccc(OC)c3)c(N3CCOCC3)nc2c1	936
Cc1cccc(-c2ncccc2CNS(=O)(=O)Cc2ccccc2)c1	684
O=C(NC1CCCC1)N1CCC(OCc2ccccc2)C1 (centres undefined)	834
Cc1ccc(C)c(N2CCN(C(=O)c3cn(-c4ccc(NC(=O)C5CC5)cn4)cn3)CC2)c1	900
CN(C)c1ccc(CNC(=O)C2CCN(S(=O)(=O)c3ccc4[nH]c(=O)ccc4c3)CC2)cc1	580
O=C(Nc1nc(-c2ccccc2)c(-c2ccccc2)s1)c1ccc(Br)s1	1460
Cc1cc(-c2c(C)sc(C)c2S(=O)(=O)NC2CCCc3ccccc32)n[nH]1 (centres undefined)	1120
Cc1ccc(CNC(=O)Cn2c(=O)c(S(=O)(=O)c3ccccc3)cc3ccccc32)cc1	900
Cc1ccc(CN2C(=O)CN(S(C)(=O)=O)CC2(C)C(=O)NCc2ccccc2)cc1 (centres undefined)	851
COc1ccc(C(=O)Nc2cc(-c3cccnc3)no2)cc1	721
O=C([C@@H]1CC(F)(F)CN1C(=O)CCn1c(=O)oc2ccccc21)N1CCCC1	718
Cc1ccc(N2CCN(S(=O)(=O)c3cc(-c4cc(C)no4)cs3)CC2)c(C)c1	1240
COc1ccc(-c2ccc(=O)n(Cc3nc(-c4ccc(OC(C)C)cc4)no3)n2)cc1	1120
CCCCC(=O)N1CCc2c(c(C(=O)NCc3ccc4c(c3)OCO4)nn2C)C1	767
CCOC(=O)CC(=O)CSc1ncnc2c1cnn2-c1ccc(F)cc1	985
CCOc1ccccc1NC(=O)Nc1ccc2c(c1)CCN2S(=O)(=O)c1ccc(C)cc1	1100
COC(=O)c1ccc2c(=O)n(-c3ccc(C)c(F)c3)c(N3CCCC3)nc2c1	1020

Compound	RP-LC retention time [s]
Cc1ccc(N2CC(c3noc(-c4cc(F)cc(F)c4)n3)CC2=O)cc1 (centres undefined)	1060
COc1ccc(NC(=O)N2CCC3(C2)C(=O)N(C)c2ccc(OC)cc23)cc1 (centres undefined)	732
O=[N+]([O-])c1ccc(-c2nc(NC3CCCCC3)c3ccccc3n2)cc1	921
CCN1C(=O)c2cccnc2Sc2cc(CNC(=O)c3sc(C)nc3C)ccc21	681
CCOc1ccc(CC(=O)N2CCCN(c3cc(-c4ccc(Br)cc4)[nH]n3)CC2)cc1OCC	842
CCOc1ccc(OCC)c(NC(=O)CSc2cc(N3CCC(C(=O)NC4CC4)CC3)ncn2)c1	860
O=C(NC1CCCCCC1)C1CCCN(S(=O)(=O)c2c[nH]c(C(=O)N3CCCCCC3)c2)C1 (centres undefined)	926
CC(C)Cn1c(=O)c(N2CCN(C(=O)CCCc3ccccc3)CC2)nc2ccncc21	742
Cc1ccc2c(C(=O)NCCc3cccnc3)cc(NC(=O)C(C)C)cc2n1	550
O=C(CS(=O)Cc1cnn(-c2ccccc2)c1-n1cccc1)NCCc1ccc(Cl)cc1 (centres undefined)	892
CCC(C)NC(=O)N1CC(n2cc(C(=O)N3CCOCC3)nn2)C1 (centres undefined)	608
O=C(CSC1CCc2ccccc2NC1=O)NCc1ccc(Cl)cc1Cl (centres undefined)	868
CCCN1CCN(c2cc(C(=O)O)c3cc(NC(=O)c4ccccc4F)ccc3n2)CC1	601
CCCn1cc(C2=CCN(S(=O)(=O)Cc3cccc(Cl)c3)CC2)c2cccnc21	1110
CN(CCc1noc(COc2ccccc2)n1)C(=O)c1c(F)cccc1F	872
COc1cccc(OC)c1OCC(O)CN1CCN(c2ccccc2F)CC1 (centres undefined)	684
COC(=O)c1c(C)[nH]c(C(=O)N2CCC(CC(=O)NCCN3CCCCC3)CC2)c1C	584
CCOC(=O)c1cccc(Nc2c(-c3ccc(C(=O)OC)cc3)nc3cnccn23)c1	902
CCOc1ccc(NS(=O)(=O)c2cc(C(=O)N3CCN(c4cccc(C)c4)C(C)C3)n[nH]2)cc1 (centres undefined)	899
Cc1ccccc1OCc1nc(-c2ccc3c(c2)oc(=O)n3C(C)C)no1	1160
CC(C)NC(=O)N1CCCC(OCc2nc(-c3ccccc3)no2)C1 (centres undefined)	551
CCC(C)NC(=O)C1CCN(c2cnc(N3CCOCC3)nc2)CC1 (centres undefined)	638

Compound	RP-LC retention time [s]
Cc1ccc2c(c1)C(O)(CC(=O)c1cccc(Br)c1)C(=O)N2 (centres undefined)	789
Cc1nn2c(nnc3c(=O)n(CCc4c[nH]c5ccccc45)ccc32)c1-c1ccc(F)cc1	954
Cc1ccccc1CN1C[C@@H]2C(=O)N(Cc3ccc4c(c3)OCO4)C(=O)[C@@H]2C1	824
OCC1CN(c2ncccn2)CC12CCN(Cc1ccc3[nH]ccc3c1)CC2 (centres undefined)	577
CC(C)Cn1c(=O)c(-c2ccc(C(=O)NCc3ccncc3)cc2)nc2ccccc21	681
Cc1ccc(NC(=O)CN2CCC(C(=O)N3CCN(C(=O)c4ccco4)CC3)CC2)cc1	569
Cc1ccc(Nc2nc(C)cc(N3CCN(C(=O)Nc4ccc5c(c4)OCO5)CC3)n2)cc1	676
Cc1ccc(C(=O)N2C[C@@H]3C[C@H](NC(=O)c4ccccc4)[C@H]2C3)cc1F	811
COc1ccc(-c2ncc3c(n2)CCN(C(=O)Nc2ccc(F)c(Cl)c2)C3)cc1	1020
CC(=O)c1ccc(NC(=O)COc2cc(C)nc(-c3ccc(F)cc3)n2)cc1	938
CCOC(=O)c1sc2cccc(F)c2c1S(=O)(=O)N1CCN(c2ccccn2)CC1	767
O=C(CC1=C2CCCCC2NC1=O)Nc1ccccc1 (centres undefined)	681
CC1(C)CC(=O)C(CC(=O)c2ccccc2)=C(NN=C(N)N)C1	666
Cc1ccc(NC(=O)Cn2nc(N(C)C)c3ccccc3c2=O)c(Br)c1	1010
CC(C)c1ccc(C(O)Cn2ccn3nc(-c4ccc(F)cc4)cc3c2=O)cc1 (centres undefined)	1110
O=C(c1ccco1)N1CCCC(c2nn[nH]n2)C1 (centres undefined)	596
Cc1cccc(NC(=O)Nc2nc(C)c(C(=O)NCc3ccc4c(c3)OCO4)s2)c1	1020
Cc1ccc(NC(=O)C2CCCN(c3ncnc4c3nc3n4CCCCC3)C2)c(Cl)c1 (centres undefined)	855
COc1ccc(Cl)cc1NC(=O)N1CCc2c(c(COc3ccccc3)nn2C)C1	988
COc1ccc(N2CCN(c3cc(SCC(=O)Nc4cccc(Cl)c4F)ncn3)CC2)cc1	1190
